Reference: patent publication US20220315534A1, “BETA ADRENERGIC AGONIST AND METHODS OF USING THE SAME” (Curasen Therapeutics, Inc., priority 2019, published 2022)

Target: T1, β2-adrenergic receptor (B2-AR) (Homo sapiens, UniProt P07550)
T1 construct: expressed in transfected cells
Experiment: cAMP Gs dynamic HTRF assay, cells expressing β2-adrenergic receptor
Assay type: cell-based
Details: CHO-K1 (HitHunter) cells; read-out: Average pEC50 [Receptor subtype: B2-AR; Cell type: CHO-K1 (HitHunter)] (converted)
Procedure: (§1) cAMP homogeneous time-resolved fluorescence (HTRF): experimental methods. Compound efficacy is determined using the cAMP Gs dynamic HTRF assay (Cisbio, catalog #62AM4PEC) largely following the manufacturer's instructions, also detailed below.
(§2) Standard serial dilution curves are 10-point, 5-fold dilutions starting from a highest concentration of 10 μM. […] Assay plates are centrifuged at 500×g for 10 seconds. Compounds and IBMX are prepared at 2× final dose to compensate for addition of cells.
(§3) Cell preparation: 1× stimulation buffer, washing PBS (Dulbecco's phosphate-buffered saline, —Mg —Ca; Caisson Labs, catalog #PBL01), assay PBS (Dulbecco's phosphate-buffered saline, +Mg, +Ca; Caisson Labs, catalog #PBL02) and Versene (0.02% EDTA disodium salt solution in PBS without calcium or magnesium; Caisson Labs, catalog #EDL01) are pre-warmed to 37° C. Cells expressing beta-adrenergic receptor were washed in washing PBS to remove growth medium and then released from the surface by incubating with Versene for 5-10 minutes at 37° C. Cells are harvested using assay PBS, counted manually by hemocytometer or by an automated cell counter, pelleted by centrifugation (200×g, 5 minutes) and resuspended in 37° C. 1× stimulation buffer to a final density of […]. 5 μL of the suspended cell solution (7500 cell total) are added to all wells of the 384 well assay plate, the assay plate was covered with an Axygen® plate seal (Corning PCR-SP) and incubated in a humidified 37° C. environment supplemented with 5% CO2 for 30 minutes.
(§4) HTRF reagent addition, reading and data analysis: After 30 minutes of cell stimulation with test compound, the assay plates are centrifuged at 500×g for 10 seconds, and incubation was stopped with the addition of 5 μL cAMP-D2 acceptor, diluted 1:21 in detection and lysis buffer 2 (Cisbio 62CL2FDF) was added to all cells. Subsequently, 5 μL Anti-cAMP-Eu Donor, diluted 1:21 in detection and lysis buffer 2, was added to cells. Plates were sealed and reactions gently ‘vortexed’ at 900 rpm on a Heidolph Titramax 1000 for at least 30 minutes at room temperature. Plates are centrifuged again at 500×g for 10 seconds, and HTRF was measured using a Tecan Spark plate reader at 50 flashes per well. […] Potency estimates (EC50 and pEC50) are derived from the four-parameter nonlinear regression of the concentration-effect curve and an estimate of relative efficacy is determined by comparing the magnitude of the test compound HTRF signal window (min-max dose) with the signal window of the full agonist control, isoproterenol.

T1 sequence (P07550 whole entry): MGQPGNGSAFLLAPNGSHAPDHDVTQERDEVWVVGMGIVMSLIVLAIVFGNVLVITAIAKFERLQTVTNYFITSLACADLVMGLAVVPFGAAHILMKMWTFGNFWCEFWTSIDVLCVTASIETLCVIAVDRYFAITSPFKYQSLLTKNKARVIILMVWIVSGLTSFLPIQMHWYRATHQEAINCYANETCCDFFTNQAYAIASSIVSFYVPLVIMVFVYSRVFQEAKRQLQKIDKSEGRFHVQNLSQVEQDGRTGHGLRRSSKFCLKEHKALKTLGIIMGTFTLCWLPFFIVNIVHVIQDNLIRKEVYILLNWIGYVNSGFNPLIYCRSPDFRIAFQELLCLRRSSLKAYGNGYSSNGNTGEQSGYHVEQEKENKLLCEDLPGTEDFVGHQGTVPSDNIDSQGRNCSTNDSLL

First: CC(C)(C)NC[C@@H](O)c1cccc2ccc(C#N)nc12 [Compound 04-71]
Second: CC(C)(C)NC[C@H](O)c1cccc2ccc(C#N)nc12 [Compound 04-72]
The EC50 of the first is higher: 100 to 1000 nM for the first, < 10 nM for the second.

First: CC(C)(C)NC[C@H](O)c1ccnc2cccnc12 [Compound 04-73]
Second: CC(C)(C)NC[C@@H](O)c1cccc2nccnc12 [Compound 04-74]
The EC50 of the first is lower: 10 to 100 nM for the first, > 1000 nM for the second.

Compared with `CC(C)(C)NC[C@H](O)c1cccc2nccnc12` [Compound 04-75], `CC(C)(C)NC[C@@H](O)c1cccc2cccnc12` [Compound 04-93] is higher in EC50: < 10 nM for the first, 100 to 1000 nM for the second.

`CC(C)(C)NC[C@H](O)c1cc(F)cc2cccnc12` [Compound 04-76] and `CC(C)(C)NC[C@H](O)c1cccc2cccnc12` [Compound 04-94] cannot be ordered by EC50: < 10 nM for the first, < 10 nM for the second.

First: CC(C)(C)NC[C@@H](O)c1ccc(F)c2cccnc12 [Compound 04-79]
Second: CC(C)(C)NC[C@H](O)c1ccc(F)c2cccnc12 [Compound 04-80]
The EC50 of the first is higher: 100 to 1000 nM for the first, < 10 nM for the second.

First: CC(C)(C)NC[C@@H](O)c1ccc(C(F)(F)F)c2cccnc12 [Compound 04-81]
Second: CC(C)(C)NC[C@H](O)c1ccc(C(F)(F)F)c2cccnc12 [Compound 04-82]
The EC50 of the first is higher: 100 to 1000 nM for the first, < 10 nM for the second.

First: Cc1ccnc2c([C@H](O)CNC(C)(C)C)cccc12 [Compound 04-83]
Second: Cc1ccnc2c([C@@H](O)CNC(C)(C)C)cccc12 [Compound 04-84]
The EC50 of the first is higher: 100 to 1000 nM for the first, 10 to 100 nM for the second.

Compared with `CC(C)(C)NC[C@H](O)c1cccc2ccc(C(F)(F)F)nc12` [Compound 04-85], `CC(C)(C)NC[C@@H](O)c1cccc2ccc(C(F)(F)F)nc12` [Compound 04-86] is higher in EC50: < 10 nM for the first, 100 to 1000 nM for the second.

Compared with `Cc1ccc2cccc([C@H](O)CNC(C)(C)C)c2n1` [Compound 04-87], `Cc1ccc2cccc([C@@H](O)CNC(C)(C)C)c2n1` [Compound 04-88] is lower in EC50: 100 to 1000 nM for the first, < 10 nM for the second.

First: CC(C)(C)NC[C@H](O)c1c(F)ccc2cccnc12 [Compound 04-90]
Second: CC(C)(C)NCC(O)c1ccnc2ccccc12 (centres unmarked) [Compound 04-96]
The EC50 of the first is higher: > 1000 nM for the first, 10 to 100 nM for the second.

First: CC(C)(C)NC[C@H](O)c1ncc(O)c2ccccc12 [Compound 04-97]
Second: CC(C)(C)NCC(O)c1cccc2ccccc12 (centres unmarked) [Compound 04-98]
The EC50 of the first is higher: > 1000 nM for the first, 10 to 100 nM for the second.

`CC(C)(C)NC[C@H](O)c1cccc2c1C(C)(C)C(=O)N2` [Compound 04-102] and `CC(C)(C)NC[C@H](O)c1cccc2c1C1(CC1)C(=O)N2` [Compound 04-103] fall in the same range of EC50: 100 to 1000 nM for the first, 100 to 1000 nM for the second.

`CC(C)(C)NC[C@H](O)c1cc(C#N)cc2[nH]ncc12` [Compound 04-104] and `Cc1cc([C@@H](O)CNC(C)(C)C)c2cn[nH]c2c1` [Compound 04-109] cannot be ordered by EC50: < 10 nM for the first, < 10 nM for the second.

`CC(C)(C)NC[C@H](O)c1cccc2[nH]ccc12` [Compound 04-105] and `CC(C)(C)NC[C@H](O)c1cccc2c1CC(=O)N2` [Compound 04-110] cannot be ordered by EC50: > 1000 nM for the first, > 1000 nM for the second.

`CC(C)(C)NC[C@H](O)c1c2cn[nH]c2cc[n+]1[O-]` [Compound 04-106] and `CC(C)(C)NC[C@@H](O)c1c2cn[nH]c2cc[n+]1[O-]` [Compound 04-107] fall in the same range of EC50: 100 to 1000 nM for the first, 100 to 1000 nM for the second.

With `CC(C)(C)NC[C@H](O)c1ccc(Cl)c2[nH]ncc12` [Compound 04-108] the EC50 was < 10 nM.

Target: T2, β1-adrenergic receptor (B1-AR) (Homo sapiens, UniProt P08588)
T2 construct: expressed in transfected cells
T2 sequence (P08588 whole entry): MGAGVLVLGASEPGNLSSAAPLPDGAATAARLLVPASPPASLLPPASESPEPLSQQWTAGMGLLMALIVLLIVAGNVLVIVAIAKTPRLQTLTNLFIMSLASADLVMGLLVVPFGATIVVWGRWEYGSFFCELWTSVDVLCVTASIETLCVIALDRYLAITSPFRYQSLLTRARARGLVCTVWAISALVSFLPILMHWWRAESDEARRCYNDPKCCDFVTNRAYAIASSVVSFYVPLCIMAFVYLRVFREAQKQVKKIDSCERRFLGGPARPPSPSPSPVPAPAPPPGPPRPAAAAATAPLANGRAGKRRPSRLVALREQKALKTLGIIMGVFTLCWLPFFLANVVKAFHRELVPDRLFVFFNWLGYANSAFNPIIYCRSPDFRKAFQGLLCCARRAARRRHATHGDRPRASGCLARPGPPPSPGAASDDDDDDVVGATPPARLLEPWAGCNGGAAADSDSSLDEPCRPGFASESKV
Experiment: cAMP Gs dynamic HTRF assay, cells expressing β1-adrenergic receptor
Assay type: cell-based
Details: CHO-K1 (HitHunter) cells; read-out: Average pEC50 [Receptor subtype: B1-AR; Cell type: CHO-K1 (HitHunter)] (converted)
Procedure: as §1, §2, §3, §4

Compared with `CC(C)(C)NC[C@@H](O)c1cccc2ccc(C#N)nc12` [Compound 04-71], `CC(C)(C)NC[C@H](O)c1cccc2ccc(C#N)nc12` [Compound 04-72] is lower in EC50: 100 to 1000 nM for the first, < 10 nM for the second.

First: CC(C)(C)NC[C@H](O)c1ccnc2cccnc12 [Compound 04-73]
Second: CC(C)(C)NC[C@@H](O)c1cccc2nccnc12 [Compound 04-74]
The EC50 of the first is lower: 10 to 100 nM for the first, > 1000 nM for the second.

First: CC(C)(C)NC[C@H](O)c1cccc2nccnc12 [Compound 04-75]
Second: CC(C)(C)NC[C@@H](O)c1cccc2cccnc12 [Compound 04-93]
The EC50 of the first is lower: < 10 nM for the first, 100 to 1000 nM for the second.

`CC(C)(C)NC[C@H](O)c1cc(F)cc2cccnc12` [Compound 04-76] and `CC(C)(C)NC[C@H](O)c1cccc2cccnc12` [Compound 04-94] cannot be ordered by EC50: < 10 nM for the first, < 10 nM for the second.

Compared with `CC(C)(C)NC[C@@H](O)c1ccc(F)c2cccnc12` [Compound 04-79], `CC(C)(C)NC[C@H](O)c1ccc(F)c2cccnc12` [Compound 04-80] is lower in EC50: 100 to 1000 nM for the first, < 10 nM for the second.

Compared with `CC(C)(C)NC[C@@H](O)c1ccc(C(F)(F)F)c2cccnc12` [Compound 04-81], `CC(C)(C)NC[C@H](O)c1ccc(C(F)(F)F)c2cccnc12` [Compound 04-82] is lower in EC50: 100 to 1000 nM for the first, < 10 nM for the second.

Compared with `Cc1ccnc2c([C@H](O)CNC(C)(C)C)cccc12` [Compound 04-83], `Cc1ccnc2c([C@@H](O)CNC(C)(C)C)cccc12` [Compound 04-84] is lower in EC50: 100 to 1000 nM for the first, < 10 nM for the second.

First: CC(C)(C)NC[C@H](O)c1cccc2ccc(C(F)(F)F)nc12 [Compound 04-85]
Second: CC(C)(C)NC[C@@H](O)c1cccc2ccc(C(F)(F)F)nc12 [Compound 04-86]
The EC50 of the first is lower: < 10 nM for the first, 100 to 1000 nM for the second.

Compared with `Cc1ccc2cccc([C@H](O)CNC(C)(C)C)c2n1` [Compound 04-87], `Cc1ccc2cccc([C@@H](O)CNC(C)(C)C)c2n1` [Compound 04-88] is lower in EC50: 100 to 1000 nM for the first, < 10 nM for the second.

Compared with `CC(C)(C)NC[C@H](O)c1c(F)ccc2cccnc12` [Compound 04-90], `CC(C)(C)NCC(O)c1ccnc2ccccc12` (centres unmarked) [Compound 04-96] is lower in EC50: 100 to 1000 nM for the first, 10 to 100 nM for the second.

Going from `CC(C)(C)NC[C@H](O)c1ncc(O)c2ccccc12` [Compound 04-97] to `CC(C)(C)NCC(O)c1cccc2ccccc12` (centres unmarked) [Compound 04-98], the EC50 falls from > 1000 nM to < 10 nM.

`CC(C)(C)NC[C@H](O)c1cccc2c1C(C)(C)C(=O)N2` [Compound 04-102] and `CC(C)(C)NC[C@H](O)c1cccc2c1C1(CC1)C(=O)N2` [Compound 04-103] fall in the same range of EC50: 100 to 1000 nM for the first, 100 to 1000 nM for the second.

First: CC(C)(C)NC[C@H](O)c1cc(C#N)cc2[nH]ncc12 [Compound 04-104]
Second: Cc1cc([C@@H](O)CNC(C)(C)C)c2cn[nH]c2c1 [Compound 04-109]
The EC50 of the first is higher: 100 to 1000 nM for the first, 10 to 100 nM for the second.

`CC(C)(C)NC[C@H](O)c1cccc2[nH]ccc12` [Compound 04-105] and `CC(C)(C)NC[C@H](O)c1cccc2c1CC(=O)N2` [Compound 04-110] cannot be ordered by EC50: > 1000 nM for the first, > 1000 nM for the second.

Compared with `CC(C)(C)NC[C@H](O)c1c2cn[nH]c2cc[n+]1[O-]` [Compound 04-106], `CC(C)(C)NC[C@@H](O)c1c2cn[nH]c2cc[n+]1[O-]` [Compound 04-107] is higher in EC50: 100 to 1000 nM for the first, > 1000 nM for the second.

For `CC(C)(C)NC[C@H](O)c1ccc(Cl)c2[nH]ncc12` [Compound 04-108], the EC50 was < 10 nM.
